Source: US6495152B2, “Sulfur containing polyhydroxyalkanoate compositions and method of production” (Tepha, Inc., priority 2000, dated 2002)

How the values were obtained:
[1] = test system: P. aeruginosa; assay: Growth on MSM agar plates containing ATAs as sole carbon sources; assay type: cell-based, Pseudomonas aeruginosa PAO1; parameters: key: +: growth; ++: good growth; −: no growth; *: thiol odor detected; details: sole carbon source
Description: (§1) Bacterial strains and culture conditions. The PHA-negative mutant R. eutropha PHB^−4 (DSM 541) and a recombinant strain of R. eutropha PHB^−4 harbouring plasmid pBBR1::phaC1 expressing the PHA synthase 1 of Pseudomonas mendocina, as well as Pseudomonas putida KT2440 (Worsey & Williams, “Metabolism of toluene and xylenes by Pseudomonas putida (arvilla) mt-2: evidence for a new function of the TOL plasmid” in J Bacteriol 124:7-13 (1975)), P. aeruginosa PAO1 (ATCC 15692), P. oleovorans (ATCC 29347), and P. mendocina (DSM 50017) were used. Cultivations were performed in nutrient broth (NB) medium or mineral salts medium (MSM) according to Schlegel (1961), supra, to which different alkylthioalkanoic acids were added as carbon sources from filter-sterilized 10% (w/v) stock solutions at the concentrations indicated in the text. Fed batch cultivations were carried out under aerobic conditions at 30° C. in 2 l Erlenmeyer flasks containing 500 ml of medium which were agitated at 130 r.p.m. In order to promote PHA accumulation, the ammonia concentration was reduced to 0.05% (w/v) in MSM.
(§2) Growth and PHA accumulation of bacteria on alkylthioalkanoic acids. To evaluate the capabilities of various pseudomonades to use alkylthioalkanoic acids (ATAs) as carbon and energy sources for the synthesis of sulfur containing PHAs, growth experiments were carried out employing MSM agar plates which contained propylthioundecanoic acid (PTUD), propylthiooctanoic acid (PTO), octylthiohexanoic acid (OTHx), butylthiovaleric acid (BTV), or propylthiopropionic acid (PTP) as carbon sources.

[2] = test system: P. oleovorans; assay: as above; assay type: cell-based, Pseudomonas oleovorans; parameters: key: +: growth; ++: good growth; −: no growth; *: thiol odor detected; details: sole carbon source
Description: as §1, §2

[3] = test system: P. mendocina; assay: as above; assay type: cell-based, Pseudomonas mendocina; parameters: key: +: growth; ++: good growth; −: no growth; *: thiol odor detected; details: sole carbon source
Description: as §1, §2

[4] = test system: P. putida; assay: as above; assay type: cell-based, Pseudomonas putida KT2440; parameters: key to Growth on MSM agar plates: +: growth; ++: good growth; −: no growth; *: thiol odor detected; details: sole carbon source; for Growth on MSM agar plates: P. putida
Description: as §1, §2

[5] = test system: Pseudomonas strains; assay: Growth experiments of pseudomonades on alkylthioalkanoic acids; assay type: cell-based; details: for Use as sole carbon source for growth: all Pseudomonas strains investigated; for Concentration above which cell growth was impaired: pseudomonades
Description: as §1, §2

[6] = test system: R. eutropha PHB-4 harboring pBBR1::phaC1; assay: Growth in MSM containing PTO as the sole carbon source; assay type: cell-based
Description: as §1
Since growth of R. eutropha PHB-4 harboring pBBR1::phaC1 in MSM containing PTO as the sole carbon source was very poor, cultivations were carried out in complex medium (NB) or in MSM containing sodium gluconate as second utilizable carbon source in addition to PTO. […]

[7] = test system: R. eutropha; assay: Growth experiments in mineral salts medium with sulfur-containing carbon sources; assay type: cell-based, R. eutropha H16; details: for Use as sole carbon source for growth: R. eutropha strain H16
Experimental: (§3) Bacterial strains and culture conditions. R. eutropha H16 (DSM 428) and R. eutropha PHB^−4 (DSM 541) were cultivated in nutrient broth (NB) growth medium or in mineral salts medium (MSM) (Schlegel et al., (1961) Arch. Mikrobiol. 38, 209-222) at 30° C. in Erlenmeyer flasks under aerobic conditions on a rotary shaker with 130 strokes/min. In order to promote PHA accumulation, the ammonia concentration was reduced to 0.05% (w/v). Carbon sources were added from filter-sterilized 20% (w/v) stock solutions at the concentrations indicated in the text.
as §3, with “PHB-4” for “PHB^−4”, “(Schlegel, 1961, supra)” for “(Schlegel et al., (1961) Arch. Mikrobiol. 38, 209-222)”, “filter-sterilized” for “filter-sterilized 20% (w/v)”

## propylthiooctanoic acid [PTO]
[1]; 0.4% (w/v)
  Growth on MSM agar plates: +
[2]; 0.4% (w/v)
  Growth on MSM agar plates: +
[3]; 0.4% (w/v)
  Growth on MSM agar plates: ++
[4]; 0.4% (w/v)
  Growth on MSM agar plates: +
[5]
  Use as sole carbon source for growth: able to use
  Concentration above which cell growth was impaired: higher than 0.8 % (w/v)
[6]
  Growth with the substance as the sole carbon source: very poor

## propylthioundecanoic acid [PTUD]
[1]; 0.4% (w/v)
  Growth on MSM agar plates: ++*
[2]; 0.4% (w/v)
  Growth on MSM agar plates: ++*
[3]; 0.4% (w/v)
  Growth on MSM agar plates: ++*
[4]; P. putida KT2440
  Growth in comparison to other pseudomonades: significantly lower
[4]; 0.4% (w/v)
  Growth on MSM agar plates: +*
[5]
  Use as sole carbon source for growth: able to use

## CC(S)CC(=O)O (stereo not shown) [3-mercaptobutyric acid]
[7]
  Use as sole carbon source for growth: not able to use

## propylthiopropionic acid [PTP]
[1]; 0.2% (w/v)
  Growth on MSM agar plates: −
[2]; 0.2% (w/v)
  Growth on MSM agar plates: −
[3]; 0.2% (w/v)
  Growth on MSM agar plates: −
[4]; 0.2% (w/v)
  Growth on MSM agar plates: −
[5]
  Use as sole carbon source for growth: not used by any bacterium for growth

## octylthiohexanoic acid [OTHx]
[1]; 0.6% (w/v)
  Growth on MSM agar plates: ++
[2]; 0.6% (w/v)
  Growth on MSM agar plates: ++
[3]; 0.6% (w/v)
  Growth on MSM agar plates: ++
[4]; 0.6% (w/v)
  Growth on MSM agar plates: ++
[5]
  Use as sole carbon source for growth: able to use

## O=C(O)CCS [3-mercaptopropionic acid]
[7]
  Use as sole carbon source for growth: not able to use
[7]; mineral salts medium plus readily utilized carbon source such as gluconic acid, R. eutropha and other bacteria
  Concentration in the medium above which growth was impaired: higher than 0.1 % (w/v)

## CCCCSCCCCC(=O)O [BTV]
[1]; 0.3% (w/v)
  Growth on MSM agar plates: +*
[2]; 0.3% (w/v)
  Growth on MSM agar plates: +*
[3]; 0.3% (w/v)
  Growth on MSM agar plates: +*
[4]; 0.3% (w/v)
  Growth on MSM agar plates: +*
[5]
  Use as sole carbon source for growth: able to use
  Concentration above which cell growth was impaired: > 0.4 % (w/v)

## O=C(O)CCSCCC(=O)O [TDP, 3,3′-thiodipropionic acid]
[7]
  Use as sole carbon source for growth: not able to use
[7]; mineral salts medium plus readily utilized carbon source such as gluconic acid
  Concentration up to which no toxic effects on growth were exerted: ≤ 1.5 % (w/v)
